Results reported in US11917959B2, “Multi-ear system to enhance monocot plant yield” (Monsanto Technology LLC, priority 2015, dated 2024).

Tested on: diploid maize plant
Assay: Multibud induction in vitro, embryo axis method (Example 8)
Format: in vivo
Method: Seeds of a diploid maize plant were surface sterilized comprising immersion using standard methods of the art and then germinated in vitro in growth media. One of the resulting seedlings was dissected from its seed two days after germination (embryo axis method). The dissected axis was then subjected to a multibud induction treatment comprising transfer to fresh multibud induction media containing cytokinin in the form of 10 mg/L BAP. After seven days in the multibud bud induction media, the treated seedlings were transferred back to a hormone-free regeneration media. […] These multibuds were dissected from the mother plant and transferred to rooting media comprising IBA and IAA. After approximately one week, the multibud-derived plants were transplanted into 10 inch pots and allowed to grow in a greenhouse until it was clear that each autonomously-growing multibud-derived shoot had formed ears and tassels that nicked. Each ear was then pollinated from the tassel growing in the same pot and then all plants were allowed to grow in greenhouse conditions until seed set.

SMILES: c1ccc(CNc2ncnc3nc[nH]c23)cc1 [BAP, 6-Benzylaminopurine, N-(Phenylmethyl)-7H-pruin-6-amine]
- seed borne by ears of multibud-derived plants (10 mg/L BAP): dozens of seed each
- multibud formation (10 mg/L BAP for seven days, after approximately twenty days): induced multibuds could be seen growing from the nodal regions of the stem
